Consider 15 compounds from patent US5852210A, “Cinnamic acid derivatives” (G. D. Searle & Co., priority 1997, dated 1998).

Test [1] deals with T1, Human vitronectin receptor (αv β3) (Homo sapiens, UniProt P05106+P06756).
T1 construct: Human vitronectin receptor (αv β3) was purified from human placenta; from tissue; host or cells: human placenta
The experiment in a line: Vitronectin adhesion assay (solid phase receptor assay, αvβ3). Format: binding. As to conditions: inhibition of binding of biotinylated human vitronectin (1 nM) to purified receptor; Table I; read-out: AvB3 IC50. The protocol: (§1) The activity of the compounds of the present invention was tested in the following assays.
Human vitronectin receptor (αv β3) was purified from human placenta as previously described [Pytela et al., Methods in Enzymology, 144:475-489 (1987)]. Human vitronectin was purified from fresh frozen plasma as previously described [Yatohgo et al., Cell Structure and Function, 13:281-292 (1988)]. Biotinylated human vitronectin was prepared by coupling NHS-biotin from Pierce Chemical Company (Rockford, Ill.) to purified vitronectin as previously described [Charo et al., J. Biol. Chem., 266(3):1415-1421 (1991)]. Assay buffer, OPD substrate tablets, and RIA grade BSA were obtained from Sigma (St. Louis, Mo.). Anti-biotin antibody was obtained from Calbiochem (La Jolla, Calif.). Linbro microtiter plates were obtained from Flow Labs (McLean, Va.). ADP reagent was obtained from Sigma (St. Louis, Mo.).
(§2) Solid Phase Receptor Assays
This assay was essentially the same as previously reported [Niiya et al., Blood, 70:475-483 (1987)]. The purified human vitronectin receptor (αv β3) was diluted from stock solutions to […] in Tris-buffered saline containing 1.0 mM Ca^++, Mg^++, and Mn^++, pH 7.4 (TBS^+++). The diluted receptor was immediately transferred to Linbro microtiter plates at 100 μL/well (100 ng receptor/well). The plates were sealed and incubated overnight at 4° C. to allow the receptor to bind to the wells. All remaining steps were at room temperature. The assay plates were emptied and 200 μL, of 1% RIA grade BSA in TBS^+++ (TBS^+++ /BSA) were added to block exposed plastic surfaces. Following a 2 hour incubation, the assay plates were washed with TBS^+++ using a 96 well plate washer. Logarithmic serial dilution of the test compound and controls were made starting at a stock concentration of 2 mM and using 2 nM biotinylated vitronectin in TBS^+++ /BSA as the diluent. This premixing of labeled ligand with test (or control) ligand, and subsequent transfer of 50 μL aliquots to the assay plate was carried out with a CETUS Propette robot; the final concentration of the labeled ligand was 1 nM and the highest concentration of test compound was 1.0×10^-4 M. The competition occurred for two hours after which all wells were washed with a plate washer as before. Affinity purified horseradish peroxidase labeled goat anti-biotin antibody was diluted 1:3000 in TBS^+++ /BSA and 125 μL were added to each well. After 30 minutes, the plates were washed and incubated with OPD/H2 O2 substrate in 100 mM/L Citrate buffer, pH 5.0. The plate was read with a microtiter plate reader at a wavelength of 450 nm and when the maximum-binding control wells reached an absorbance of about 1.0, the final A450 were recorded for analysis. The data were analyzed using a macro written for use with the EXCEL™ spreadsheet program. The mean, standard deviation, and % CV were determined for duplicate concentrations. The mean A450 values were normalized to the mean of four maximum-binding controls (no competitor added) (B-MAX). The normalized values were subjected to a four parameter curve fit algorithm [Rodbard et al., Int.

Test [2] addresses T2, Human fibrinogen receptor (αIIb β3) (Homo sapiens, UniProt P05106+P08514).
T2 construct: Human fibrinogen receptor (αIIb β3) was purified from outdated platelets; from tissue; host or cells: human outdated platelets
Briefly: Purified IIb/IIIa receptor assay (solid phase receptor assay). As to conditions: inhibition of binding of biotinylated human vitronectin (1 nM) to purified receptor; Table I. The method, then: as §1
Human fibrinogen receptor (αIIb β3) was purified from outdated platelets. (Pytela, R., Pierschbacher, M. D., Argraves, S., Suzuki, S., and Rouslahti, E. "Arginine-Glycine-Aspartic acid adhesion receptors", Methods in Enzymology 144(1987):475-489.) Human vitronectin was purified from fresh frozen plasma as described in Yatohgo, T., Izumi, M., Kashiwagi, H., and Hayashi, M., "Novel purification of vitronectin from human plasma by heparin affinity chromatography," Cell Structure and Function 13(1988):281-292. Biotinylated human vitronectin was prepared by coupling NHS-biotin from Pierce Chemical Company (Rockford, Ill.) to purified vitronectin as previously described. (Charo, I. F., Nannizzi, L., Phillips, D. R., Hsu, M. A., Scarborough, R. M., "Inhibition of fibrinogen binding to GP IIb/IIIa by a GP IIIa peptide", J. Biol. Chem. 266(3) (1991): 1415-1421.) Assay buffer, OPD substrate tablets, and RIA grade BSA were obtained from Sigma (St. Louis, Mo.). Anti-biotin antibody was obtained from Calbiochem (La Jolla, Calif.). Linbro microtiter plates were obtained from Flow Labs (McLean, Va.). ADP reagent was obtained from Sigma (St. Louis, Mo.).
as §2
This assay is essentially the same reported in Niiya, K., Hodson, E., Bader, R., Byers-Ward, V. Koziol, J. A., Plow, E. F. and Ruggeri, Z. M., "Increased surface expression of the membrane glycoprotein IIb/IIIa complex induced by platelet activation: Relationships to the binding of fibrinogen and platelet aggregation", Blood 70 (1987):475-483. The purified human fibrinogen receptor (αIIb β3) was diluted from stock solutions to 1.0 μg/mL in Tris-buffered saline containing 1.0 mM Ca^++, Mg^++, and Mn^++, pH 7.4 (TBS^+++). The diluted receptor was immediately transferred to Linbro microtiter plates at 100 μL/well (100 ng receptor/well). The plates were sealed and incubated overnight at 4° C. to allow the receptor to bind to the wells. All remaining steps were at room temperature. The assay plates were emptied and 200 μL of 1% RIA grade BSA in TBS^+++ (TBS^+++ /BSA) were added to block exposed plastic surfaces. Following a 2 hour incubation, the assay plates were washed with TBS^+++ using a 96 well plate washer. Logarithmic serial dilution of the test compound and controls were made starting at a stock concentration of 2 mM and using 2 nM biotinylated vitronectin in TBS^+++ /BSA as the diluent. This premixing of labeled ligand with test (or control) ligand, and subsequent transfer of 50 μL aliquots to the assay plate was carried out with a CETUS Propette robot; the final concentration of the labeled ligand was 1 nM and the highest concentration of test compound was 1.0×10^-4 M. The competition occurred for two hours after which all wells were washed with a plate washer as before. Affinity purified horseradish peroxidase labeled goat anti-biotin antibody was diluted 1:3000 in TBS^+++ /BSA and 125 μL were added to each well. After 30 minutes, the plates were washed and incubated with […]/H2 O2 substrate in 100 mM/L citrate buffer, pH 5.0. The plate was read with a microtiter plate reader at a wavelength of 450 nm and when the maximum-binding control wells reached an absorbance of about 1.0, the final A450 were recorded for analysis. The data were analyzed using a macro written for use with the EXCEL™ spreadsheet program. The mean, standard deviation, and % CV were determined for duplicate concentrations. The mean A450 values were normalized to the mean of four maximum-binding controls (no competitor added) (B-MAX). The normalized values were subjected to a four parameter curve fit algorithm, [Robard et al., Int.

Counter-ions that a name gives are not always drawn. Bounds are passed on as bounds.

T1 sequence (P06756 31-889 limits assumed): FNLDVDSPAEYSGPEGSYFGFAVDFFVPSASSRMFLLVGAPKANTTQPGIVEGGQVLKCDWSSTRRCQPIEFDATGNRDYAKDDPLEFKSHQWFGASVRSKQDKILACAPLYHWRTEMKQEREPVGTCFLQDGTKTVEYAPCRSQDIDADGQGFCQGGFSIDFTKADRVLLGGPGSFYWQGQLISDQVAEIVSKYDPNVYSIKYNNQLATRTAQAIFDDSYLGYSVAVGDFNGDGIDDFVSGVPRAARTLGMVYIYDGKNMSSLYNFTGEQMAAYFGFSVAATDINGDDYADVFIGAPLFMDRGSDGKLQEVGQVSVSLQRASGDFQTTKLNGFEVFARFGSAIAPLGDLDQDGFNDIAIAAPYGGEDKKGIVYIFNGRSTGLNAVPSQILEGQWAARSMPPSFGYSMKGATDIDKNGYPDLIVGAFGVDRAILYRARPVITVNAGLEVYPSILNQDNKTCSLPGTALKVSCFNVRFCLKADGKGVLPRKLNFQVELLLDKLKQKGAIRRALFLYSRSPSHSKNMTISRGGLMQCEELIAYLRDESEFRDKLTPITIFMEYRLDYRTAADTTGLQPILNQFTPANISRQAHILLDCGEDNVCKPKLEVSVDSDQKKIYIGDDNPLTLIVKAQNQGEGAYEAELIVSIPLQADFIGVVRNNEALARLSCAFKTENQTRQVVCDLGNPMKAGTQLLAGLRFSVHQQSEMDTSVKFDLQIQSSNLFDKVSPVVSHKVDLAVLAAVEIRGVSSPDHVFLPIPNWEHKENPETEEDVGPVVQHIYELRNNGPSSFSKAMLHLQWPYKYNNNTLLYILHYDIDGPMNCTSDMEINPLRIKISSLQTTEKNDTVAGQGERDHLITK
T1 sequence (P06756 891-1048 limits assumed): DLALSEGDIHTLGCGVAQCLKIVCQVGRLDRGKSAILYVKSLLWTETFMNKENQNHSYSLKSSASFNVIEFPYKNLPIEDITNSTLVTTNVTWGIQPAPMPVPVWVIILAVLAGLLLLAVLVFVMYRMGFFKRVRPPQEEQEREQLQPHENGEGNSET
T1 sequence (P05106 27-788): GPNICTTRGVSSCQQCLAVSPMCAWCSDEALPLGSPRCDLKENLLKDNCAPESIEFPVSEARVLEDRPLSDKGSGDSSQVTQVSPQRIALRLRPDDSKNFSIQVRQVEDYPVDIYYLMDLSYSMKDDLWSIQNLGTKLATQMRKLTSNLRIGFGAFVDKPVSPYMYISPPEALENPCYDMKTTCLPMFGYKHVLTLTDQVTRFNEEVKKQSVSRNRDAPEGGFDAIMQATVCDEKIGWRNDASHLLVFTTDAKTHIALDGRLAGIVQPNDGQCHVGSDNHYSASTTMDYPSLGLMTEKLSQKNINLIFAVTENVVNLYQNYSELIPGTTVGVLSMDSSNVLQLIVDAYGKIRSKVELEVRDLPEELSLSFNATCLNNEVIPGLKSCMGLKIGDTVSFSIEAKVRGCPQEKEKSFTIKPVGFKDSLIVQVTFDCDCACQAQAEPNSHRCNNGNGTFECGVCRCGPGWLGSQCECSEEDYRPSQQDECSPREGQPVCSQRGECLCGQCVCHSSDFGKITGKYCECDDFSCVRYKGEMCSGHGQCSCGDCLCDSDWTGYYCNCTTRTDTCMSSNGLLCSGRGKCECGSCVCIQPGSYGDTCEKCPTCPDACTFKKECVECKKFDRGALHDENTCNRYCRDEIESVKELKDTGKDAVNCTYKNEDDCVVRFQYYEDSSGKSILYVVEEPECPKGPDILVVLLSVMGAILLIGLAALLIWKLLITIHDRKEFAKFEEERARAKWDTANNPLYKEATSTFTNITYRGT
T2 sequence (P08514 32-887 limits assumed): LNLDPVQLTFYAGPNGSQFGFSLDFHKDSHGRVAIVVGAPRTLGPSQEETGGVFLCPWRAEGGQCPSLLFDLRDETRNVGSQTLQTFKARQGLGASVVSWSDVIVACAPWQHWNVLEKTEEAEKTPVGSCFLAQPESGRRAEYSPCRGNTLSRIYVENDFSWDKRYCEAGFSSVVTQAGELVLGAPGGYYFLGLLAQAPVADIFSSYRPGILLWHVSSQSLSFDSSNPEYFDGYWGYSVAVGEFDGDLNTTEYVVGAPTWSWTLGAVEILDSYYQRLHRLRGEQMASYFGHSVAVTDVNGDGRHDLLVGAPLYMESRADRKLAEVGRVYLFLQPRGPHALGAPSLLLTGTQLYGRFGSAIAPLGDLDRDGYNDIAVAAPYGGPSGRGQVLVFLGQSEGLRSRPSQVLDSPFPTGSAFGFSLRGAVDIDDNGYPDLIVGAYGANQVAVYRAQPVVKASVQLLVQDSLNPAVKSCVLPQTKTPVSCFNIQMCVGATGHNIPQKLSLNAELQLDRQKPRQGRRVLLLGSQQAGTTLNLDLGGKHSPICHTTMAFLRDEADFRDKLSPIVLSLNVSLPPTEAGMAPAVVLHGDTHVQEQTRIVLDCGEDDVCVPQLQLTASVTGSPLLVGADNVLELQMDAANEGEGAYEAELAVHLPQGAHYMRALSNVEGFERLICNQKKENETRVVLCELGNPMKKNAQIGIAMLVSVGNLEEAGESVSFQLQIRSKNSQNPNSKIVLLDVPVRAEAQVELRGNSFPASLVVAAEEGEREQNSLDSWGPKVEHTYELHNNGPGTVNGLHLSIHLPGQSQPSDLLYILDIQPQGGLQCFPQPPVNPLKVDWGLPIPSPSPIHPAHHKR
T2 sequence (P08514 891-1039 limits assumed): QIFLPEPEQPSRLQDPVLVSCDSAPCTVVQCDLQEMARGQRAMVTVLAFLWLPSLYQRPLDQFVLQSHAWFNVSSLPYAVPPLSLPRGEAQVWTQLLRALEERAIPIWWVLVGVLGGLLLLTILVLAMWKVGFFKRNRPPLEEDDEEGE
T2 sequence (P05106 27-788): as the sequence (P05106 27-788) above

As to `N=C(N)Nc1cccc(CCC(=O)c2cccc(/C=C/C(=O)O)c2)c1` [Example 92, 3-[3-[3-[3-[(aminoiminomethyl)amino]phenyl]-1-oxopropyl]phenyl]propenoic acid, trifluoroacetate salt], the concentration for half-maximal inhibition (IC50) in test [1] amounted to 48.9 nM; in test [2], 4010 nM.

For the compound `N=C(N)Nc1cccc(/C=C/C(=O)c2ccc(F)c(/C=C/C(=O)O)c2)c1` [Example 84, 3-[5-[3-[3-[(aminoiminomethyl)amino]phenyl]-1-oxopropenyl]-2-fluorophenyl]propenoic acid, trifluoroacetate salt], the figures for the IC50 in test [1] and in test [2] were 891 nM and 35200 nM, respectively.

`O=C(O)/C=C/c1cccc(C(=O)/C=C/c2cccc(NC3=NCCCN3)c2)c1` [Example 90, 3-[3-[1-oxo-3-[3-[(1,4,5,6-tetrahydropyrimidin-2-yl)amino]phenyl]-2-propenyl]phenyl]propenoic acid, trifluoroacetate salt]: the IC50 in test [1] amounted to 6.98 nM; in test [2], 2320 nM.

For `COC(=O)/C=C/c1ccc(NC(=O)c2cccc(NC3=NCCCN3)c2)cc1C(=O)O` [Example 40C, 2-[2-(methoxycarbonyl)ethenyl]-5-[[[3-[(1,4,5,6-tetrahydropyrimidin-2-yl)amino]phenyl]carbonyl]amino]benzoic acid, trifluoroacetate salt], the half-inhibitory concentration (IC50) in test [1] turned out to be 176 nM; in test [2] it was 20400 nM.

As to `Cc1cc(NC(=O)c2cccc(NC(=N)N)c2)ccc1/C=C/C(=O)O` [Example 33, 3-[4-[[[3-[(aminoiminomethyl)amino]phenyl]carbonyl]-amino]-2-methylphenyl]propenoic acid, trifluoroacetate salt], the IC50 in test [1] was found to be 73.3 nM; in test [2], 121 nM.

With `NC(=O)N=C(N)Nc1cccc(C(=O)Nc2ccc(/C=C/C(=O)O)cc2)c1` [Example 52, 3-[4-[[[3-[[amino[(aminocarbonyl)imino)methyl]amino]phenyl]carbonyl]amino]phenyl]propenoic acid, trifluoroacetate salt], the IC50 was found to be 72.5 nM in test [1] and 133 nM in test [2].

As for `O=C(O)/C=C/c1ccc(NC(=O)c2cccc(NC3=NCCCS3)c2)cc1` [Example 56, 3-[4-[[[3-[(5,6-dihydro-4H-1,3-thiazin-2-yl)amino]phenyl]carbonyl]amino]phenyl]propenoic acid, trifluoroacetate salt], the IC50 in test [1] is 4.03 nM; in test [2] it was 656 nM.

Turning to `Cc1cc(/C=C/C(=O)O)cc(C)c1NC(=O)c1cccc(NC(N)=O)c1` [Example 27, 3-[4-[[[3-[(aminocarbonyl)amino]phenyl]carbonyl]-amino]-3,5-dimethylphenyl]propenoic acid, trifluoroacetate salt], the 50% inhibitory concentration (IC50) is 204 nM in test [1] and over 100000 nM in test [2].

Regarding `Cc1cc(/C=C/C(=O)O)ccc1NC(=O)c1cccc(NC2=NCCCN2)c1` [Example 18, 3-[3-methyl-4-[[[3-[(1,4,5,6-tetrahydropyrimidin-2-yl)amino]phenyl]carbonyl]amino]phenyl]propenoic acid, trifluoroacetate salt], the IC50 came out at 0.46 nM in test [1] and 181 nM in test [2].

For `COC(=O)c1cc(NC(=O)c2cccc(NC(=N)N)c2)ccc1/C=C/C(=O)O` [Example 37, methyl 5-[[[3-[(aminoiminomethyl)amino]phenyl]carbonyl]amino]-2-(2-carboxyethenyl)benzoate, trifluoroacetate salt], the IC50 in test [1] is 32.3 nM; in test [2], 80 nM.

Consider `N=C(N)Nc1cc(C(=O)Nc2ccc(/C=C/C(=O)O)c(Cl)c2)cc(C(F)(F)F)c1` [Example 54, 3-[4-[[[3-[(aminoiminomethyl)amino]-5-(trifluoromethyl)phenyl]carbonyl]amino]-2-chlorophenyl]propenoic acid, trifluoroacetate salt], for which the IC50 in test [1] turned out to be 12.5 nM; in test [2], 686 nM.

For `O=C(O)/C=C/c1ccc(NC(=O)c2cccc(NC3=NCCCN3)c2)c(Cl)c1` [Example 22, 3-[3-chloro-4-[[[3-[(1,4,5,6-tetrahydropyrimidin-2-yl)amino]phenyl]carbonyl]amino]phenyl]propenoic acid, trifluoroacetate salt], the results for the IC50 in test [1] and in test [2] were 0.48 nM and 234 nM, respectively.

For `N=C(N)Nc1cccc(C(=O)Nc2ccc(/C=C/C(=O)O)c(/C=C/C(=O)O)c2)c1` [Example 42, 3-[4-[[[3-[(aminoiminomethyl)amino]phenyl]carbonyl]amino]-2-(2-carboxyethenyl)phenyl]propenoic acid, trifluoroacetate salt], the IC50 in test [1] is 7.6 nM; in test [2], 15.9 nM.

As to `N=C(N)Nc1cccc(C(=O)Nc2ccc(/C=C/C(=O)O)cc2F)c1` [Example 11, 3-[4-[[[3-[(aminoiminomethyl)aminolphenyl]carbonyl]-amino]-3-fluorophenyl]-2E-propenoic acid, trifluoroacetate salt], the IC50 worked out at 7.07 nM in test [1] and 14.1 nM in test [2].

On to `N=C(N)Nc1cccc(C(=O)Nc2ccc(/C=C(\NC(=O)c3ccccc3)C(=O)O)cc2)c1` [Example 60, 3-[4-[[[3-[(aminoiminomethyl)amino]phenyl]carbonyl]amino]phenyl]-2-[(phenylcarbonyl)amino]propenoic acid, trifluoroacetate salt], for which the 50% inhibitory concentration (IC50) in test [1] was determined as 67.3 nM; in test [2], 440 nM.

What is called IC50 is the concentration at which inhibition is half-maximal.
